According to US11059795B2, “Androgen receptor modulators and methods for their use” (ESSA Pharma, Inc., priority 2018, dated 2021):

Legend:
[1] = target: T1, androgen receptor (AR) (Homo sapiens, UniProt P10275, T878A); assay: Androgen-induced PSA (6.1 kb)-luciferase reporter assay in LNCaP cells; type: cell-based; details: LNCaP cells transfected with PSA (6.1 kb)-luciferase reporter, R1881 1 nM, 24 h; read-out: PSA-Luc IC50 Range
T1 construct: LNCaP cells were transiently transfected with the PSA (6.1 kb)-luciferase reporter for 24 h; endogenous in cells; host or cells: LNCaP
T1 sequence (P10275 1-920 T878A): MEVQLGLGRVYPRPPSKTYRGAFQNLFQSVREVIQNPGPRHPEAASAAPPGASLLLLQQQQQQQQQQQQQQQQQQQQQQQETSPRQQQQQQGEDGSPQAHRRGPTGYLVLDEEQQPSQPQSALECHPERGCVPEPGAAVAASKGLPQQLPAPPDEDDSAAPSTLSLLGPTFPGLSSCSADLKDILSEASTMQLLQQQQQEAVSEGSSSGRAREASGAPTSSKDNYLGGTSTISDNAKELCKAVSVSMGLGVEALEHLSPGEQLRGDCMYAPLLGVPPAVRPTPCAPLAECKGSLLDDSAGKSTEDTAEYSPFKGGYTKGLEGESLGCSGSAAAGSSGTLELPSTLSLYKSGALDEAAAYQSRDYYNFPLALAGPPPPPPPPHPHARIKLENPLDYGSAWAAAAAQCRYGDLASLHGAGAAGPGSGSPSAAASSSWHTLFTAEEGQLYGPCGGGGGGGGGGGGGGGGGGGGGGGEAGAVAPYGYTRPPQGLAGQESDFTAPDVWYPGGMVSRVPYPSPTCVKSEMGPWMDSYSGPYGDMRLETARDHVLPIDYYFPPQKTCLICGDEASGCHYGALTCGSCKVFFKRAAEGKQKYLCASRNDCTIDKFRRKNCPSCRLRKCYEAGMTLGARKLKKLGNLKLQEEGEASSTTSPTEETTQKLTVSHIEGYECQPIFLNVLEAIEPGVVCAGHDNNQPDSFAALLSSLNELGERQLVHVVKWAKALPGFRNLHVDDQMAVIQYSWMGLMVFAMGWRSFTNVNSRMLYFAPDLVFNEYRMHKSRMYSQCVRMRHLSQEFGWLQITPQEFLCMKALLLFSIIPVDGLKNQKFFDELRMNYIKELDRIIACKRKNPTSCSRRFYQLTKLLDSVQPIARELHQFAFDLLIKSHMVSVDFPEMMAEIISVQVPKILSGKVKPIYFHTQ
Outline: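 LNCaP cells carrying a PSA (6.1 kb) promoter-luciferase reporter with AREs; androgen-induced firefly luciferase read from lysates for 10 s. RLU normalized to protein content; IC50 calculated from the normalized data.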

[2] = Microsomal stability assay, mouse liver microsomes; type: in vitro ADME; details: mouse, liver microsomes, pH 7.4, mouse liver microsomes, 1 μM compound, 0.5 mg/mL protein, 37° C.; read-out: MLM +30/− NADPH: Clint (μL/min/mg protein)
Outline: (§1)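 Compound at 1 μM was incubated at 37° C with 0.5 mg/mL liver microsomes and 1 mM NADPH and/or 1 mM UDPGA (with alamethicin) in 100 mM potassium phosphate pH 7.4, 3 mM MgCl2. Samples were taken at 0, 15, 30 and 60 min and measured by LC/MS/MS. t½ came from compound loss relative to 0 min, and Clint was scaled with 45 mg microsomal protein/g liver.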

[3] = Microsomal stability assay, human liver microsomes; type: in vitro ADME; details: pH 7.4, 1 μM compound, 0.5 mg/mL protein, 37° C., read-out: HLM +/− NADPH: Clint (μL/min/mg protein)
Outline: as §1

[4] = Hepatocyte stability assay, mouse hepatocytes; type: in vitro ADME; details: mouse, cryopreserved hepatocytes, 1 μM compound, 0.5 million cells/mL, 37° C., read-out: MH +/− NADPH: Clint (μL/min/million cells)
Outline: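 Cryopreserved rat, human or mouse hepatocytes at 0.5 million cells/mL in DMEM with 1 μM compound, 37° C, sampled at 0, 60, 120 and 180 min and quenched with acetonitrile/formic acid. Parent loss vs 0-min by LC/MS/MS gave t½, and Clint = 0.693/t½ × mL incubation/million cells.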

SMILES | IC50 [1] [nM] | microsomal CLint at 1 μM [2] [µL/min/mg] | microsomal CLint at 1 μM [3] [µL/min/mg] | hepatocyte CLint at 1 μM [4] [µL/min/1e6 cells]
CC(C)(c1ccc(OCc2nc(NS(C)(=O)=O)cs2)cc1)c1cc(Cl)c(OCCCl)c(C#N)c1 [Compound A137, N-(2-((4-(2-(3-Chloro-4-(2-chloroethoxy)-5-cyanophenyl)propan-2-yl)phenoxy)methyl)thiazol-4-yl)methanesulfonamide] | < 500 | 12 to 48 | < 12 | < 4
CC(=O)Nc1nc(COc2ccc(C(C)(C)c3cc(Cl)c(OCCCl)c(C#N)c3)cc2)co1 [Compound A140] | < 500 | ≥ 48 | ≥ 48 | ≥ 18
CC(C)(c1ccc(OCc2ncoc2S(C)(=O)=O)cc1)c1cc(Cl)c(OCCCl)c(C#N)c1 [Compound A141] | < 500 | ≥ 48 | < 12 | ≥ 18
CC(C)S(=O)(=O)c1ncc(COc2ccc(C(C)(C)c3cc(Cl)c(OCCCl)c(C#N)c3)cc2)o1 [Compound A142] | < 500 | ≥ 48 | 12 to 48 | ≥ 18
CC(C)(c1ccc(OCC2COC(NS(C)(=O)=O)=N2)cc1)c1ccc(OCCCl)c(C#N)c1 (stereo not shown) [Compound A143] | > 2000 | < 12 | < 12 | < 4
CC(=O)Nc1nccc(C(C)Oc2ccc(C(C)(C)c3cc(Cl)c(OCCCl)c(C#N)c3)cc2)n1 (stereo not shown) [Compound A145] | 500 to 2000 | ≥ 48 | ≥ 48 | ≥ 18
CC(Oc1ccc(C(C)(C)c2cc(Cl)c(OCCCl)c(C#N)c2)cc1)c1ccnc(S(C)(=O)=O)n1 (stereo not shown) [Compound A147] | > 2000 | ≥ 48 | 12 to 48 | ≥ 18
CC(C)(c1ccc(OCc2cncnc2NS(C)(=O)=O)cc1)c1cc(Cl)c(OCCCl)c(C#N)c1 [Compound A148] | 500 to 2000 | < 12 | ≥ 48 | < 4
CC(C)(c1ccc(OCc2cnc(S(C)(=O)=O)s2)cc1)c1cc(Cl)c(OCCCl)c(C#N)c1 [Compound A149] | < 500 | < 12 | < 12 | ≥ 18
CC(C)(c1ccc(OCc2ncc(S(C)(=O)=O)o2)cc1)c1cc(Cl)c(OCCCl)c(C#N)c1 [Compound A153] | 500 to 2000 | 12 to 48 | < 12 | 4 to 18
CC(C)(c1ccc(OCc2coc(N)n2)cc1)c1cc(Cl)c(OCCCl)c(C#N)c1 [Compound A155] | < 500 | ≥ 48 | 12 to 48 | 4 to 18
COC(=O)Nc1nc(COc2ccc(C(C)(C)c3cc(Cl)c(OCCCl)c(C#N)c3)cc2)co1 [Compound A156] | < 500 | 12 to 48 | 12 to 48 | ≥ 18
Cc1nc(N)cc(COc2ccc(C(C)(C)c3cc(Cl)c(OCCCl)c(C#N)c3)cc2)n1 [Compound A162] | < 500 | ≥ 48 | 12 to 48 | ≥ 18
CC(C)(c1ccc(OCc2cc(CN)nc(NS(C)(=O)=O)n2)cc1)c1cc(Cl)c(OCCCl)c(C#N)c1 [Compound A164, N-(4-(aminomethyl)-6-((4-(2-(3-chloro-4-(2-chloroethoxy)-5-cyanophenyl)propan-2-yl)phenoxy)methyl)pyrimidin-2-yl)methanesulfonamide] | 500 to 2000 | < 12 | < 12 | < 4
CC(C)(c1ccc(OCc2ccc(S(C)(=O)=O)o2)cc1)c1cc(Cl)c(OCCCl)c(C#N)c1 [Compound A168, 3-chloro-2-(2-chloroethoxy)-5-(2-(4-((5-(methylsulfonyl)furan-2-yl)methoxy)phenyl)propan-2-yl)benzonitrile] | < 500 | < 12 | < 12 | 4 to 18
CC(C)(c1ccc(OCc2nc(C(N)=O)cs2)cc1)c1cc(Cl)c(OCCCl)c(C#N)c1 [Compound A171, 2-((4-(2-(3-chloro-4-(2-chloroethoxy)-5-cyanophenyl)propan-2-yl)phenoxy)methyl)thiazole-4-carboxamide] | 500 to 2000 | < 12 | < 12 | 4 to 18
CC(C)(c1ccc(OCc2nc(C#N)cs2)cc1)c1cc(Cl)c(OCCCl)c(C#N)c1 [Compound A172, 2-((4-(2-(3-chloro-4-(2-chloroethoxy)-5-cyanophenyl)propan-2-yl)phenoxy)methyl)thiazole-4-carbonitrile] | < 500 | < 12 | < 12 | < 4
CC(C)(c1ccc(OCc2nccc(NS(C)(=O)=O)n2)cc1)c1cc(Cl)c(OCCCl)c(C#N)c1 [Compound A184, N-(2-((4-(2-(3-chloro-4-(2-chloroethoxy)-5-cyanophenyl)propan-2-yl)phenoxy)methyl)pyrimidin-4-yl)methanesulfonamide] | > 2000 | < 12 | < 12 | < 4
CC(C)(c1ccc(OCc2cncc(NS(C)(=O)=O)n2)cc1)c1cc(Cl)c(OCCCl)c(C#N)c1 [Compound A185, N-(6-((4-(2-(3-chloro-4-(2-chloroethoxy)-5-cyanophenyl)propan-2-yl)phenoxy)methyl)pyrazin-2-yl)methanesulfonamide] | < 500 | 12 to 48 | < 12 | 4 to 18
CC(C)(c1ccc(OCc2nc(NS(C)(=O)=O)nc3c2CCOC3)cc1)c1cc(Cl)c(OCCCl)c(C#N)c1 [Compound A190] | 500 to 2000 | ≥ 48 | < 12 | ≥ 18
CC(C)(c1ccc(OCc2cnc(CN)o2)cc1)c1cc(Cl)c(OCCCl)c(C#N)c1 [Compound A192] | < 500 | 12 to 48 | 12 to 48 | ≥ 18
Cn1c(COc2ccc(C(C)(C)c3cc(Cl)c(OCCCl)c(C#N)c3)cc2)ccc1S(C)(=O)=O [Compound A193] | 500 to 2000 | ≥ 48 | ≥ 48 | 4 to 18
CC(C)(c1ccc(OCc2cccc(NS(C)(=O)=O)n2)cc1)c1cc(Cl)c(OCCCl)c(C#N)c1 [Compound A194] | 500 to 2000 | < 12 | < 12 | < 4
CC(C)(c1ccc(OCc2ccnc(NS(C)(=O)=O)c2)cc1)c1cc(Cl)c(OCCCl)c(C#N)c1 [Compound A195] | < 500 | < 12 | < 12 | 4 to 18
CC(C)(c1ccc(OCc2cc(NS(C)(=O)=O)ccn2)cc1)c1cc(Cl)c(OCCCl)c(C#N)c1 [Compound A196] | 500 to 2000 | < 12 | 12 to 48 | < 4
